Patent publication EP4603105A1, “PHARMACEUTICAL COMPOSITION CONTAINING CYCLIC COMPOUND HAVING SELECTIVE KRAS INHIBITORY EFFECT AGAINST HRAS AND NRAS” (CHUGAI SEIYAKU KABUSHIKI KAISHA, priority 2022, dated 2024)
Like-named read-outs stand apart in the source and are kept apart here.

Columns and labels:
[1] = molecular target: GDP-bound KRAS wild-type protein (Homo sapiens, UniProt P01116); experiment: Binding to KRAS by surface plasmon resonance (SPR), dissociation constant KD
Procedure, shortened: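 Compound binding is evaluated by SPR single-cycle kinetics, with concentrations added intermittently from low to high for 75 s each. Target surfaces carry GDP-loaded biotinylated Avi-RAS at about 100–300 RU, regenerated after each cycle; temperature 30°C. A 1:1 binding model gives KD.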

[2] = molecular target: GDP-bound NRAS wild-type protein (Homo sapiens, UniProt P01111); experiment: Binding to NRAS by surface plasmon resonance (SPR), KD and KD ratio to KRAS
Sequence of GDP-bound NRAS wild-type protein (P01111 whole entry): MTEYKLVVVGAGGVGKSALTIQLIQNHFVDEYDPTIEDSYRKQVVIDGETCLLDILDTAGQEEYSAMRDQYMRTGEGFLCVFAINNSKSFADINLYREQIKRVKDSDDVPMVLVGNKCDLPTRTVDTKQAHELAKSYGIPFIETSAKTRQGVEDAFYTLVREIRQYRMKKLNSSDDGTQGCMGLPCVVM
Procedure, shortened: (§1)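 Single-cycle kinetics on GDP-loaded biotin-Avi RAS captured to ~100–300 RU; 75 s ascending injections, 100 µL/min, 30°C. HBS pH 7.4 + 10 mM MgCl2/10 µM GDP/4% DMSO. 1:1 fit, KD.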

HRAS wild-type protein = HRAS wild-type protein (Homo sapiens, UniProt P01112); experiment: Binding to HRAS by surface plasmon resonance (SPR), KD and KD ratio to KRAS
Sequence of HRAS wild-type protein (P01112 whole entry): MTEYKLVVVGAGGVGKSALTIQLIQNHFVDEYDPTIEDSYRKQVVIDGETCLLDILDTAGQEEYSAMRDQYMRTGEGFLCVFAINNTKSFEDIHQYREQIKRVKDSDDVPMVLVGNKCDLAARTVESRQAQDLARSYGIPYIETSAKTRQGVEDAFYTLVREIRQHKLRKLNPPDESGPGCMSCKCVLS
Procedure, shortened: as §1

[3] = test system: human lung cancer strain NCI-H441; experiment: NCI-H441 cell proliferation inhibitory activity (CellTiter-Glo, 4 days); assay type: cell-based; settings: read-out: NCl-H441 IC50
Procedure, shortened: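 Proliferation was scored by […] measured after the reagent was added to cultures kept at 37°C in 5% carbon dioxide.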

[4] = ratio of KD for GDP-bound NRAS wild-type protein to KD for KRAS
[5] = ratio of KD for HRAS wild-type protein to KD for KRAS
[6] = Single Cycle Kinetics, 1:1 binding model
[7] = ratio of KD with respect to GDP-bound NRAS wild-type protein to KD with respect to KRAS
[8] = ratio of KD with respect to HRAS wild-type protein to KD with respect to KRAS
[9] = 50% proliferation inhibitory concentration, four days

Sequence of GDP-bound KRAS wild-type protein (P01116 1-188 isoform P01116-2): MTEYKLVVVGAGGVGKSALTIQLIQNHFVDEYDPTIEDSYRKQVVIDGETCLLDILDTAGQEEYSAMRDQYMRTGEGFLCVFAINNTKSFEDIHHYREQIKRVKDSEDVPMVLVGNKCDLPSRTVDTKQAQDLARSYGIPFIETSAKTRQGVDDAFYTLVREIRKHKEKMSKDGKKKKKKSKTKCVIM

Structure (SMILES) | Kd ([1]; Single Cycle Kinetics) [nM] | NRAS /KRAS [2, 4] | HRAS /KRAS (HRAS wild-type protein; [5]) | IC50 ([3]; NCI-H441 cells, 4 days) [nM] | Kd ([1]; 1:1 binding model) [nM] | Kd [1, 6] [nM] | NRAS /KRAS [2, 7] | HRAS /KRAS (HRAS wild-type protein; [8]) | IC50 [3, 9] [nM]
CCCO[C@@H]1C[C@H]2C(=O)NC3(CC(C)(C)C3)C(=O)N(C)[C@@H](C3CCCC3)C(=O)N(C)[C@H](C(=O)N(C)CC)CC(=O)N(C)[C@@H](COCC)C(=O)N[C@@H]([C@@H](C)CC)C(=O)N(C3CC3)CC(=O)N(C)[C@H]3C/C=C\CCN(C3=O)[C@@H](Cc3ccc(C(F)(F)F)cc3)C(=O)N(C)CC(=O)N[C@@H](CCc3cc(F)c(C(F)(F)F)c(F)c3)C(=O)N2C1 [PP3470] | 0.61 | A (a compound having 10 or more and less than 20 is denoted as A) | A (a compound having 10 or more and less than 20 is denoted as A) | 12.2 | – | – | – | – | –
CCC[C@H]1C(=O)N[C@@H]([C@@H](C)CC)C(=O)N2CCC[C@H]2C(=O)N(C)[C@H]2C/C=C\CCN(C2=O)[C@@H](Cc2ccc(C)cc2)C(=O)N(C)CC(=O)N[C@@H](CCc2cc(F)c(C(F)(F)F)c(F)c2)C(=O)N2C[C@H](OCC)C[C@H]2C(=O)NC2(CCCC2)C(=O)N(C)[C@@H](C2CCCC2)C(=O)N(C)[C@H](C(=O)N(C)C)CC(=O)N1C [PP3480] | 0.49 | A (a compound having 10 or more and less than 20 is denoted as A) | A (a compound having 10 or more and less than 20 is denoted as A) | 12.9 | – | – | – | – | –
CCC[C@H]1C(=O)N[C@@H]([C@@H](C)CC)C(=O)N(C)CC(=O)N(C)[C@H]2C/C=C\CCN(C2=O)[C@@H](Cc2ccc(C(F)(F)F)cc2)C(=O)N(C)CC(=O)N[C@@H](CCc2cc(F)c(C(F)(F)F)c(F)c2)C(=O)N2CC3(CC3)C[C@H]2C(=O)NC2(CCC2)C(=O)N(C)[C@@H](C(CC)CC)C(=O)N(C)[C@H](C(=O)N(C)C)CC(=O)N1C [PP3402] | 0.31 | AA (a compound having 20 or more is denoted as AA) | B (a compound having 3 or more and less than 10 is denoted as B) | 10.1 | – | – | – | – | –
CCC[C@H]1C(=O)N[C@@H]([C@@H](C)CC)C(=O)N(C2CC2)CC(=O)N(C)[C@H]2C/C=C\CCN(C2=O)[C@@H](Cc2ccc(C)cc2)C(=O)N(C)CC(=O)N[C@@H](CCc2ccc(C(F)(F)F)c(OC)c2)C(=O)N2C[C@H](OCC)C[C@H]2C(=O)NC2(CC(C)(C)C2)C(=O)N(C)[C@@H](CC(C)(C)C)C(=O)N(C)[C@H](C(=O)N(C)C)CC(=O)N1C [PP2722] | – | B (a compound having 3 or more and less than 10 is denoted as B) | B (a compound having 3 or more and less than 10 is denoted as B) | 13.9 | 0.4 | – | – | – | –
CCCOC[C@H]1C(=O)N[C@@H]([C@@H](C)CC)C(=O)N(C)CC(=O)N(C)[C@H]2C/C=C\CCN(C2=O)[C@@H](CC2CCC(F)(F)CC2)C(=O)N(C)CC(=O)N[C@@H](CCc2ccc(C(F)(F)F)c(OC)c2)C(=O)N2C[C@H](OCC)C[C@H]2C(=O)NC2(CC(C)(C)C2)C(=O)N(C)[C@@H](C(CC)CC)C(=O)N(C)[C@H](C(=O)N(C)C)CC(=O)N1C [PP2464] | – | A (a compound having 10 or more and less than 20 is denoted as A) | A (a compound having 10 or more and less than 20 is denoted as A) | 66 | 0.98 | – | – | – | –
CCO[C@@H]1C[C@H]2C(=O)NC3(CCC3)C(=O)N(C)[C@@H](C3CCCC3)C(=O)N(C)[C@H](C(=O)N(C)C)CC(=O)N(C)[C@@H](CC3CC3)C(=O)N[C@@H]([C@@H](C)CC)C(=O)N(C)CC(=O)N(C)[C@H]3C/C=C\CCN(C3=O)[C@@H](Cc3ccc(C)cc3)C(=O)N(C)CC(=O)N[C@@H](CCc3ccc(Cl)c(Cl)c3)C(=O)N2C1 [PP1485] | – | – | – | – | – | 0.28 | A (a compound having 10 or more and less than 20 is denoted as A) | A (a compound having 10 or more and less than 20 is denoted as A) | 30.5
CCO[C@@H]1C[C@H]2C(=O)NC3(CCC3)C(=O)N(C)[C@@H](C(CC)CC)C(=O)N(C)[C@H](C(=O)N(C)C)CC(=O)N(C)[C@@H](COC)C(=O)N[C@@H]([C@@H](C)CC)C(=O)N(C)CC(=O)N(C)[C@H]3C/C=C\CCN(C3=O)[C@@H](Cc3ccc(C(F)(F)F)cc3)C(=O)N(C)CC(=O)N[C@@H](CCc3ccc(Cl)c(Cl)c3)C(=O)N2C1 [PP1221] | – | – | – | – | – | 0.4 | AA (a compound having 20 or more is denoted as AA) | A (a compound having 10 or more and less than 20 is denoted as A) | 40.6
CC[C@H](C)[C@@H]1NC(=O)[C@H](CC)N(C)C(=O)C[C@@H](C(=O)N(C)C)N(C)C(=O)[C@H](C2CCCC2)N(C)C(=O)C2(CCC2)NC(=O)[C@@H]2CCCN2C(=O)[C@H](CCc2cc(F)c(C(F)(F)F)c(F)c2)NC(=O)CN(C)C(=O)[C@H](CC2CCCCC2)N2CC/C=C\C[C@@H](C2=O)N(C)C(=O)CN(C)C1=O [PP1475] | – | – | – | – | – | 0.55 | A (a compound having 10 or more and less than 20 is denoted as A) | A (a compound having 10 or more and less than 20 is denoted as A) | 48.9
C#CCN1CC(=O)N(C)[C@H]2C/C=C\CCN(C2=O)[C@@H](Cc2ccc(C)cc2)C(=O)N(C)CC(=O)N[C@@H](CCc2cc(F)c(C(F)(F)F)c(F)c2)C(=O)N2C[C@H](OCC)C[C@H]2C(=O)NC2(CC(C)(C)C2)C(=O)N(C)[C@@H](C2CCCC2)C(=O)N(C)[C@H](C(=O)N(C)C)CC(=O)N(C)[C@@H](CCC)C(=O)N[C@@H](CC(C)C)C1=O [PP2512] | – | A (a compound having 10 or more and less than 20 is denoted as A) | A (a compound having 10 or more and less than 20 is denoted as A) | 109 | 2 | – | – | – | –
C#CC[C@H]1C(=O)N[C@@H]([C@@H](C)CC)C(=O)N2CCC[C@H]2C(=O)N(C)[C@H]2C/C=C\CCN(C2=O)[C@@H](Cc2ccc(C)cc2)C(=O)N(C)CC(=O)N[C@@H](CCc2cc(F)c(C(F)(F)F)c(F)c2)C(=O)N2C[C@H](OCC)C[C@H]2C(=O)N(C)C2(CCC2)C(=O)N(C)[C@@H](C2CCCC2)C(=O)N(C)[C@H](C(=O)N(C)C)CC(=O)N1C [PP3256] | 0.078 | A (a compound having 10 or more and less than 20 is denoted as A) | A (a compound having 10 or more and less than 20 is denoted as A) | 4.2 | – | – | – | – | –
CCO[C@@H]1C[C@H]2C(=O)NC3(CCC3)C(=O)N(C)[C@@H](C3CCCC3)C(=O)N(C)[C@H](C(=O)N(C)C)CC(=O)N(C)[C@@H](CC)C(=O)N[C@@H]([C@@H](C)CC)C(=O)N(C)CC(=O)N(C)[C@H]3C/C=C\CCN(C3=O)[C@@H](Cc3ccc(C(F)(F)F)cc3)C(=O)N(C)CC(=O)N[C@@H](CCc3ccc(Cl)c(Cl)c3)C(=O)N2C1 [PP1249] | – | – | – | – | – | 0.18 | A (a compound having 10 or more and less than 20 is denoted as A) | A (a compound having 10 or more and less than 20 is denoted as A) | 55.4
CCC[C@H]1C(=O)N[C@@H]([C@@H](C)CC)C(=O)N2CCCCC[C@H]2C(=O)N(C)[C@H]2C/C=C\CCN(C2=O)[C@@H](Cc2ccc(C(F)(F)F)cc2)C(=O)N(C)CC(=O)N[C@@H](CCc2ccc(C(F)(F)F)c(OC)c2)C(=O)N2C[C@H](OCC)C[C@H]2C(=O)N(C)C2(CCC2)C(=O)N(C)[C@@H](C2CCCC2)C(=O)N(C)[C@H](C(=O)N(C)C)CC(=O)N1C [PP3276] | 4 | A (a compound having 10 or more and less than 20 is denoted as A) | A (a compound having 10 or more and less than 20 is denoted as A) | 105 | – | – | – | – | –
CCC[C@H]1C(=O)N[C@@H](C2CCCC2)C(=O)N(C)CC(=O)N(C)[C@H]2C/C=C\CCN(C2=O)[C@@H](Cc2ccc(C)cc2)C(=O)N(C)CC(=O)N[C@@H](CCc2cc(F)c(C(F)(F)F)c(F)c2)C(=O)N2CC3(CC3)C[C@H]2C(=O)N(C)C2(CCC2)C(=O)N(C)[C@@H](C2CCCC2)C(=O)N(C)[C@H](C(=O)N(C)C)CC(=O)N1C [PP3306] | 0.052 | A (a compound having 10 or more and less than 20 is denoted as A) | B (a compound having 3 or more and less than 10 is denoted as B) | 9.3 | – | – | – | – | –
CCC[C@H]1C(=O)N[C@@H]([C@@H](C)CC)C(=O)N(C2CC2)CC(=O)N(C)[C@H]2C/C=C\CCN(C2=O)[C@@H](Cc2ccc(C(F)(F)F)cc2)C(=O)N(C)CC(=O)N[C@@H](CCc2ccc(C(F)(F)F)c(Cl)c2)C(=O)N2CC[C@H](OC)[C@H]2C(=O)N(C)C2(CCC2)C(=O)N(C)[C@@H](C2CCCC2)C(=O)N(C)[C@H](C(=O)N(C)C)CC(=O)N1C [PP3288] | 0.21 | A (a compound having 10 or more and less than 20 is denoted as A) | A (a compound having 10 or more and less than 20 is denoted as A) | 6.9 | – | – | – | – | –
CCO[C@@H]1C[C@H]2C(=O)NC3(CCCC3)C(=O)N(C)[C@@H](C3CCCC3)C(=O)N(C)[C@H](C(=O)N(C)C)CC(=O)N(C)[C@@H]([C@@H](C)OC)C(=O)N[C@@H]([C@@H](C)CC)C(=O)N(C3CC3)CC(=O)N(C)[C@H]3C/C=C\CCN(C3=O)[C@@H](Cc3ccc(C(F)(F)F)cc3)C(=O)N(C)CC(=O)N[C@@H](CCc3cc(F)c(C(F)(F)F)c(F)c3)C(=O)N2C1 [PP3476] | 0.37 | A (a compound having 10 or more and less than 20 is denoted as A) | A (a compound having 10 or more and less than 20 is denoted as A) | 15.2 | – | – | – | – | –
